Results published in patent US20210322333A1, “Lignin-PLGA Biopolymers and Nanoparticles, and their Synthesis and Use” (Board of Supervisors of Louisiana State University and …, priority 2018, published 2021).
Marks after values point to notes of the source that are not given here.

Experiments:
[1] = cited from earlier work
[2] = system: MDA-MB-231 breast cancer cells; experiment: Cell survival assay (crystal violet, 5 days); type: cell-based
Description: Breast cancer cell line MDA-MB-231 was generously donated by the Burrow Lab at Tulane University School of Medicine. Cells were maintained in 5% CO2 at 37° C. and cultured in Dulbecco's modified Eagle's medium (DMEM) supplemented with 10% Hyclone Cosmic Calf Serum (HyClone Laboratories, Utah), 50 ng/mL insulin (Sigma-Aldrich, St. Louis, Mo., USA), and 1% MEMAA, NEAA, sodium pyruvate, and antibiotic-antimycotic (Gibco, Dublin, Ireland).
MDA-MB-231 breast cancer cells were seeded at a density of 5000 cells per well in cell culture medium on 96-well Corning Costar tissue culture plastic plates (Corning Life Sciences, Corning, N.Y., USA). After 24 hours in culture, cells were treated with vehicle control (DMSO), PLGA NPs (negative control), AL-PLGA NPs (negative control), free GDC-0623 (positive control), PLGA-GDC NPs, or AL-PLGA-GDC NPs. […] Following treatment, cells were cultured for 5 days and then stained with crystal violet. Crystal violet was eluted with 33% acetic acid, and absorbance at 570 nm was measured with a BioTek Cytation 3 plate reader (BioTek Instruments Inc, Winooski, Vt., USA). The experiment was carried out with both internal replicates (n=3) and biological replicates (n=3).

## O=C(NOCCO)c1ccc2cncn2c1Nc1ccc(I)cc1F [GDC-0623]
[1]; Phase I trials
  pharmacokinetic characteristics: dose-proportional and time-dependent
  tolerability: well-tolerated
[1]; daily oral dosing
  accumulation at steady-state: no significant accumulation
[2]; 1 nM, relative to DMSO, n = 3
  Mean Relative Cell Number (%): 96.1%
[2]; 10 nM GDC-0623 free or NP-entrapped, relative to DMSO (Table 6)
  Mean Relative Cell Number (%): 87.8* %
[2]; 10 nM, relative to DMSO, n = 3
  Mean Relative Cell Number (%): 83.9%
[2]; 100 nM GDC-0623, normalized versus free drug (Table 7, first group)
  Mean Relative Cell Number (%): 100.0%
[2]; 100 nM GDC-0623 free or NP-entrapped, relative to DMSO (Table 6)
  Mean Relative Cell Number (%): 51.4** %
[2]; 100 nM, compared to DMSO (vehicle)
  reduction in cell numbers: 50%
[2]; 100 nM, relative to DMSO, n = 3
  Mean Relative Cell Number (%): 46.8* %
[2]; 1 μM, relative to DMSO, n = 3
  Mean Relative Cell Number (%): 31.3** %
[2]; 10 μM, relative to DMSO, n = 3
  Mean Relative Cell Number (%): 30.9** %
[2]; printed 100 nM GDC-0623, normalized versus free drug (Table 7, second group r12-r14)
  Mean Relative Cell Number (%): 100.0%
